Literature values in patent publication US20230190668A1, “SLOW-RELEASE MEDICAL PLASTER” (FIDIA FARMACEUTICI S.P.A., priority 2020, published 2023).
Where a name gives a salt, the structure may show the parent alone. Read-outs that look alike come from different tables or passages of the source.

Conditions: same matrix, active ingredient amount and excipients, 24 hours, without BHA

release from medical plaster with PSA matrix of Eudragit NE40 and citric acid ester (sodium salt) | SMILES | release from medical plaster with PSA matrix of Eudragit NE40 and citric acid ester
 | O=C(O)Cc1ccccc1Nc1c(Cl)cccc1Cl [diclofenac DEA salt, diclofenac diethylammonium salt] | released in a constant, continuous, prolonged and therapeutically effective way for 24 hours
released in a minimal way | O=C(O)Cc1ccccc1Nc1c(Cl)cccc1Cl [diclofenac sodium salt] | 
